Laboratory results reported in PMC4445002, “Efficient inhibition of tumor angiogenesis and growth by a synthetic peptide blocking S100A4-methionine aminopeptidase 2 interaction” (Molecular Therapy. Methods & Clinical Development, 2015).

Legend:
[1] = test system: S100A4-MetAP2 interaction; assay: In vitro GST pull-down binding assay S100A4-MetAP2; details: [35S]MetAP2, GST/S100A4, 1 mmol/l CaCl2; peptide at 25-fold molar excess of MetAP2
[2] = test system: new blood vessel formation in BALB/c nude mice; assay: Directed in vivo angiogenesis assay (DIVAA) in nude mice; parameters: species or system mouse; details: angioreactors with Afs (bFGF, VEGF, heparin), peptide (1 mg/ml) with atelocollagen, s.c. implant, 15 days, n = 3; NBD P < 0.01
PC-3M-Luc tumors = assay: Tumor angiogenesis (microvessel density, CD31 staining) in PC-3M-Luc xenografts; type: in vivo, human tumor in athymic nude mice; details: single intratumoral injection of 100 μg peptide in atelocollagen, tumors dissected three days after
Procedure: Figure 5 Inhibition of tumor angiogenesis and tumor growth of human prostate cancer cells by the NBD peptide. The peptide/atelocollagen was injected into the subcutaneous tumors on day 3 after inoculation of PC-3M-Luc cells. Atelocollagen alone was injected as controls. (a) Microvessel density. Anti-CD31-antibody staining was used to detect angiogenesis. Arrows show microvessels. The images were digitally processed for assessment of angiogenesis. (b) Inhibition of tumor growth by peptide delivery in vivo. Representative bioluminescent images of nude are shown. L, tumors treated with the CBD peptide; R, tumors treated with the NBD peptide. (c) The photon count of the bioluminescence is shown. Data represent the mean ± SD. The total number of animals is 7 in two independent experiments.
The peptide/atelocollagen complex was prepared by mixing equal volumes of atelocollagen (0.1% in PBS at pH 7.4) and peptide solution (1 mg/ml) with rotation for 30 minutes at 4 °C. The final concentration of atelocollagen was 0.5%. […] Tumor growth was assessed through peptide/atelocollagen complex administration to mice 3 days after the subcutaneous inoculation of PC-3M-Luc cells. Mice were monitored by bioluminescent imaging 14 days after the injection of the peptide/atelocollagen complex. […]

[3] = test system: vinculin and integrin β1 focal adhesions in MSS31 cells; assay: Focal adhesion and F-actin immunofluorescence; type: cell-based, mouse; details: 5 μg/well, 18 hours
Procedure: Figure 7 Stimulation of the formation of focal contacts by the NBD peptide. MSS31 cells incubated with atelocollagen alone or the peptide/atelocollagen complexes were subjected to immunofluorescent staining and western blot analysis. (a) Formation of focal adhesions. The cells were immunostained with antivinculin or anti-integrin β1 antibody followed by Alexa Fluor 488-conjugated secondary antibody. F-actin was visualized with Atto 647N-Phalloidin. Nuclei were stained with DAPI. Scale bars: 50 μm. (b) Western blot analysis of focal adhesion proteins. Total cellular proteins were subjected to immunoblot analysis. (c) Relative expression level of vinculin (VCN), integrin β1 (ITGβ1) and p-FAK. The band intensity of VCN and ITGβ1 and p-FAK relative to that of β-actin and total FAK, respectively, was measured using ImageJ software and normalized to control cells.
MSS31 cells cultured in six-well plates were incubated with 5 μg/well of the NBD or the CBD peptide/atelocollagen complex or atelocollagen alone for 18 hours in Culture Slides (4 wells, BD Falcon) and were washed three times with DPBS and fixed for 10 minutes at 4 °C with 4% formaldehyde in DPBS. After permeabilizing with 0.5% Triton X-100 in DPBS for 4 minutes, the cells were treated with 3% bovine serum albumin in DPBS containing 0.1% glycine for 1 hour to block nonspecific binding sites. After washing with DPBS, the cells were incubated for 1 hour with primary antibodies, rinsed, and then stained with secondary antibodies. The primary antibodies used were polyclonal anti-S100A4, monoclonal anti-NMIIA antibody, monoclonal antivinculin antibody and polyclonal anti-integrin β1 antibody. The secondary antibody was Alexa Fluor 488-conjugated goat antirabbit IgG (Invitrogen) or Alexa Fluor 594-conjugated goat antimouse IgG (Invitrogen). F-Actin was visualized with Atto 647N-Phalloidin (Sigma-Aldrich). Nuclei were stained with 1 μg/ml DAPI. The slides were mounted with VECTASHIELD Mounting Medium (Vector Laboratories). The cells were observed under a confocal laser scanning microscope (Fluoview FV1000, Olympus, Japan).

MSS31 cells = assay: Cell cycle progression by BrdU flow cytometry; type: cell-based, mouse; details: 9 hours
Procedure: Since the overexpression of the SBD in MSS31 cells caused DNA synthesis inhibition, we examined the effect of the NBD peptide on cell cycle progression by flow cytometry after treating the cells with various concentrations of the synthetic peptides (0–1.0 μg/well) complexed with atelocollagen for 9 hours.
Figure 8 Inhibition of cell cycle progression and cell growth by the NBD peptide. MSS31 cells were treated with atelocollagen alone or the NBD or the CBD peptide/atelocollagen complex in vitro. (a) Cell cycle progression. The cells were labeled with BrdU and then subjected to flow cytometry. (b) Cell growth. The values represent cell growth rate relative to that of control cells that is set to 100%. The NBD peptide inhibited the growth of MSS31 cells compared to the control cells (atelocollagen alone). Data represent the mean ± SD (n = 4), P < 0.01. TEXT PRINTED IN THE PICTURE: (a) NBD: S:13.2%; G1:70.7%; G2/M:9.6% | (a) CBD: S:32.1%; G1:55.4%; G2/M:8.9% | (a) peptide(−): S:36.7%; G1:49.6%; G2/M:9.7%
MSS31 cells treated with 1.0 μg/ml of the NBD peptide or the CBD peptide/atelocollagen were labeled with 10 μmol/l BrdU for 6 hours. Atelocollagen alone was used as a control. Flow cytometric analysis was carried out using the FITC BrdU Flow Kit (BD Biosciences Pharmigen, San Diego, CA) following the manufacturer’s instructions.

[4] = 0–1.0 μg/well with atelocollagen

NBD: N-terminal 39 amino acid sequence of SBD, from Arg170 to Ileu208; corresponding to MetAP2 (170–208) (REAAEAHRQVRKYVMSWIKPGMTMIEICEKLEDCSRKLI)
inhibition of S100A4-MetAP2 interaction (GST pull-down) [1]: inhibited the binding as efficiently as SBD
in vivo angiogenesis (DIVAA) [2]: potently suppressed the angiogenic factors-induced angiogenesis
tumor angiogenesis (PC-3M-Luc tumors): severely impaired
number of focal adhesions per cell ([3]; atelocollagen complex, vinculin and integrin β1 staining): greater number of vinculin- and integrin β1-containing focal adhesions per cell than the untreated and the CBD peptide-treated cells
distribution of focal adhesions ([3]; immunofluorescence): focal adhesions were distributed uniformly
formation of actin filaments ([3]; phalloidin staining): Formation of actin filaments was also prominent
effect on G2/M phase (MSS31 cells; [4]): not significantly affected
effect on cell cycle progression (MSS31 cells; [4]): leads to cell cycle arrest in the G1/S phase
cells in G2/M phase (MSS31 cells; atelocollagen complex, BrdU flow cytometry, representative study, without peptide 9.7%): 9.6%
cells in S phase (MSS31 cells; atelocollagen complex, BrdU flow cytometry, representative study, without peptide 36.7%): 13.2%
cells in G1 phase (MSS31 cells; atelocollagen complex, BrdU flow cytometry, representative study, without peptide 49.6%): 70.7%
